Structures are written as SMILES.

The text below walks through data of article PMC4019449 (Annals of Clinical and Translational Neurology, 2014).

The target in one series is GluN1/GluN2A receptors (Homo sapiens, UniProt Q05586+Q12879). Kind of series: Screening of FDA-approved NMDAR antagonists, TEVC oocyte recordings, wild type. The class given is cell-based.
The target in series [1] is T1, GluN1/GluN2A-L812M receptors (Homo sapiens, UniProt Q05586+Q12879, L812M). In kind it is cell-based.
Series [2] concerns the target GluN1/GluN2A-N615K receptors (Homo sapiens, UniProt Q05586+Q12879, N615K). In kind it is cell-based.
Series [3] addresses T1, GluN1/GluN2A-L812M receptors. As to the kind of experiment: Agonist potency, TEVC recordings from Xenopus laevis oocytes, L812M mutant. In kind it is cell-based.
Another series has as its system seizures of the proband. Kind of series: Antiepileptic treatment of the proband. In kind it is in vivo, human.
Series [4] deals with animal models of epilepsy. The settings on record: wide range of animal models of epilepsy; cited from earlier work.
The conditions of series [5]: used in children; cited from earlier work.
The mark [6] stands for this setting: read-out: percent maximal inhibition.

With `NC12CC3CC(CC(C3)C1)C2` [Amantadine], the IC50 on GluN1/GluN2A receptors was 110 ± 11 µM; in series [1], 113 ± 5.1 µM; in series [2], 458 ± 25 µM. For the same compound, the inhibition at 1000 µM at GluN1/GluN2A receptors (setting [6]) is 94%; in series [1] (setting [6]), 88%; in series [2] (setting [6]), 76%.
As for `COc1ccc2c(c1)[C@]13CCCC[C@@H]1[C@H](C2)N(C)CC3` [Dextromethorphan], the figures for the inhibition at 300 µM (at GluN1/GluN2A receptors (setting [6]); in series [1] (setting [6]); in series [2] (setting [6])) were 88%, 91% and 92%, respectively. Besides, the figures for the IC50 in series [1] and in series [2] were 33 ± 4.8 µM and 9 ± 1.3 µM, respectively. In addition, the “enhanced potency on N615K-containing NMDARs in comparison to wild-type NMDARs” value in series [2] (N615K compared with wild type) is recorded as “twofold”.
For `CN1CC[C@@]23CCCC[C@@H]2[C@@H]1Cc1ccc(O)cc13` [Dextrorphan], the results for the IC50 (against GluN1/GluN2A receptors; in series [1]; in series [2]) were 1.9 ± 0.3 µM, 6.1 ± 1.3 µM and 0.34 ± 0.06 µM, respectively. In addition, the inhibition at 30 µM was 92% at GluN1/GluN2A receptors (setting [6]), 85% in series [1] (setting [6]) and 96% in series [2] (setting [6]).
For `NCC(=O)O` [Glycine], the “reduction in EC50 (increased potency), GluN2A-L812M vs wild type” value in series [3] (L812M compared with wild type) is on record as “eightfold”. In addition, the EC50 in series [3] (read-out: Glycine EC50, L812M, in the presence of 100 μmol/L glutamate, -40 mV) came to 0.14 ± 0.01 µM.
With `CC12CC3CC(C)(C1)CC(N)(C3)C2` [Memantine], the inhibition at 100 µM on GluN1/GluN2A receptors (setting [6]) is 89%; in series [1] (setting [6]), 87%; in series [2] (setting [6]), 69%. In addition, the cognitive ability entry in the series on seizures of the proband (memantine treatment) was “remained unchanged”. In addition, the “interictal EEG after treatment” value in the series with seizures of the proband (postmemantine EEG, wakefulness and sleep) is recorded as “no asymmetries or epileptiform discharges”. In addition, in the series on seizures of the proband (upon memantine treatment), the myoclonic jerks entry was “ceased”. Further, the side effects result in the series on seizures of the proband (~0.5 mg/kg per day) is listed as “without side effects”. Further, the anticonvulsant effects entry in series [4] was “anticonvulsant effects”. The toxicity in children entry in series [5] is “without toxicity”.

A word on the IC50: it is the midpoint of a concentration-inhibition curve. A lower IC50 goes with greater potency. Usually inhibition stands for the change of the read-out against control, counted positive when it falls. As usually defined, the EC50 is the midpoint of the concentration-response curve.
